System: cardiac gene expression
Assay: Microarray analysis of cardiac gene expression (GeneChip Mouse Genome 430 2.0)
Type: in vivo, mice
Protocol: Microarray Sample Preparation and Analysis. Animal hearts were rapidly removed, and the atria and right ventricles were cut and immediately plunged into TRIzol Reagent (Life Technologies). Total RNA was isolated following the manufacturer's instructions, purified by phenol-chloroform extraction and then ethanol precipitation, and 20 μg further processed for microarray analysis. Briefly, cDNA synthesis, in vitro transcription, and labeling and fragmentation to produce the oligonucleotide probes were performed as instructed by the GeneChip manufacturer (Affymetrix). The probes were first hybridized to a test array (Affymetrix) and then to the GeneChip Mouse Genome 430 2.0 Array, using the GeneChip Hybridization Oven 640. The chips were washed in a GeneChip Fluidics Station 450 (Affymetrix), and the results were visualized with a GeneChip G7 scanner (Affymetrix). RMA normalization, pairwise comparisons, Student's t test and Benjamini and Hochberg correction were subsequently performed using GeneSifter (VizX Labs, Seattle, Wash.) and Spotfire DecisionSite 8.3 (Spotfire, Inc., Somerville, Mass.).
Effects on Gene Expression Profile. […] One mouse heart was used for each array, and was performed in triplicate, generating a total of 12 arrays. GeneSifter was used to perform RMA normalization, pairwise comparisons of averaged signal intensity values, and Student's t-test with Benjamini and Hochberg correction, and Spotfire was used to perform pairwise comparisons. […] Additionally, genes that were altered between any two N or cardiac hypertrophy samples were removed, as these alterations most likely represented normal variations between mice.

[1] = heart, drug + isoproterenol vs isoproterenol only
[2] = mouse heart, vs isoproterenol only (CH), CH vs normal 1.6
[3] = mouse heart, vs isoproterenol only (CH), CH vs normal 1.7
[4] = mouse heart, vs isoproterenol only (CH), CH vs normal 1.8
[5] = mouse heart, vs isoproterenol only (CH), CH vs normal 1.9
[6] = mouse heart, vs isoproterenol only (CH), CH vs normal 2.0
[7] = mouse heart, vs isoproterenol only (CH), CH vs normal 2.1
[8] = mouse heart, vs isoproterenol only (CH), CH vs normal 2.2

With `C[C@H]1c2cccc(O)c2C(=O)C2=C(O)[C@]3(O)C(=O)C(C(N)=O)=C(O)[C@@H](N(C)C)[C@@H]3[C@@H](O)[C@@H]21` [doxycycline] the “FC EGF, latrophilin seven transmembrane domain containing 1 (Eltd1)” value (GenBank NM_133222, vs mice given only isoproterenol) was −1.7, the “FC ERBB receptor feedback inhibitor 1 (Errifi1)” value (GenBank NM_133753, vs mice given only isoproterenol) was −2.7 and the “FC F-box only protein 31 (Fboxo31)” value (GenBank NM_133765, vs mice given only isoproterenol) was −2.4. For the same compound, the “FC Ras homolog gene family, member U (Arhu) (Rhou)” value (GenBank NM_133955, vs mice given only isoproterenol) was −2.5, the “FC Peroxisomal biogenesis factor 12 (Pex12)” value (GenBank NM_134025, vs mice given only isoproterenol) was −2.4 and the “FC PHD finger protein 21A (Phf21a)” value (GenBank NM_138755, vs mice given only isoproterenol) was 2.1. The “FC Glutamate-ammonia ligase (Glu1)” value (GenBank U09114, vs mice given only isoproterenol) was −3.5, the “FC Gem GTPase (Gem)” value (GenBank U10551, vs mice given only isoproterenol) was −2.8 and the “FC P19-protein tyrosine phosphatase (Ptpn12)” value (GenBank X63440, vs mice given only isoproterenol) was −1.5. The “Cyclin G2 (Ccng2), Microarray FC” value [1] was −3.1 FC, the “Cyclin-dependent kinase inhibitor 1A (p21) (Cdkn1a), Microarray FC” value [1] was −6.5 FC and the “Cytokine inducible SH2-containing protein 3 (Socs3), Microarray FC” value [1] was −4.9 FC. The “DNA-damage-inducible transcript 4 (Ddit4), Microarray FC” value [1] was −5.6 FC, the “GATA binding protein 4 (Gata4), Microarray FC” value [1] was 2.7 FC and the “Gem GTPase (Gem), Microarray FC” value [1] was −2.8 FC. For the same compound, the “Lipocalin 2 (Lcn2), Microarray FC” value [1] was −13.3 FC, the “Matrix metalloproteinase 3 (Mmp3), Microarray FC” value [1] was −2.9 FC and the “Metallothionein 1 (MT2), Microarray FC” value [1] was −5.5 FC. The “NADPH oxidase 4 (Nox4), Microarray FC” value [1] was −3.2 FC, the “Oncostatin receptor (Osmr), Microarray FC” value [1] was −2.6 FC and the “Phospholipase A2 group VII (platelet-activating factor acetylhydrolase, plasma) (Pla2g7), Microarray FC” value [1] was −2.2 FC. For the same compound, the “S100 calcium binding protein A8 (calgranulin A) (S100a8), Microarray FC” value [1] was −19.9 FC, the “S100 calcium binding protein A9 (calgranulin B) (S100a9), Microarray FC” value [1] was −14.0 FC and the “SET and MYND domain containing 1 (Smyd1), Microarray FC” value [1] was 2.7 FC. For the same compound, the “Serine protease inhibitor 2-2 (Spi2-2) (Serpin3n), Microarray FC” value [1] was −9.7 FC, the “Transformation related protein 53 inducible nuclear protein 1 (Trp53inp1), Microarray FC” value [1] was −3.5 FC and the “Tubulin, alpha 4 (Tuba4), Microarray FC” value [1] was 5.8 FC. For the same compound, the “FC Ankyrin repeat domain 47 (Ankrd47), C79906” value [2] was −2.0 fold, the “FC Procollagen, type IV, alpha 1 (Col4a1), AW536690” value [2] was −2.4 fold and the “FC cDNA, AV293532” value [3] was −1.5 fold. For the same compound, the “FC cDNA, BG073457” value [3] was −1.9 fold, the “FC cDNA, BI689897” value [3] was −1.8 fold and the “FC AT rich interactive domain 5B (Mrf1 like) (Arid5b), BB079486” value [4] was −2.0 fold. For the same compound, the “FC Actin binding LIM protein family, member 3 (Ablim3), BB667786” value [4] was −2.4 fold, the “FC Chloride intracellular channel 5 (Circ5), AA210377” value [4] was −1.7 fold and the “FC Fatty acid binding protein 4, adipocyte (Fabp4), BC002148” value [4] was −2.1 fold. For the same compound, the “FC cDNA, AK005293” value [4] was −1.8 fold, the “FC cDNA, BM215139” value [4] was −1.7 fold and the “FC Chitinase 3-like 3; chitinase 3-like 4, AY065557” value [5] was −2.4 fold. For the same compound, the “FC cDNA, BI683916” value [5] was −2.6 fold, the “FC Casitas B-lineage lymphoma b (Cblb), AV276986” value [6] was −1.7 fold and the “FC Choline kinase (Chk), NM_013490” value [6] was −1.9 fold. The “FC Coiled-coil domain containing 85A (Ccdc85a), AW060797” value [6] was −2.0 fold, the “FC Transglutaminase 2, C polypeptide (Tgm2), AW321975” value [6] was −1.8 fold and the “FC cDNA, AV228737” value [6] was −2.1 fold. For the same compound, the “FC cDNA, BB447627” value [6] was −1.6 fold, the “FC Adenosine deaminase (Ada), NM_007398” value [7] was −2.4 fold and the “FC CXC chemokine (angie2) (Cxcl13), AF030636” value [7] was −2.2 fold. For the same compound, the “FC EST, AV032095” value [7] was −1.8 fold, the “FC EST, BE630073” value [7] was −2.0 fold and the “FC cDNA, AI788755” value [7] was −2.3 fold. For the same compound, the “FC cDNA, BB431047” value [7] was −2.2 fold, the “FC Angiogenin, ribonuclease A family, member 1 (Ang1), AI385586” value (mouse heart, vs isoproterenol only (CH), CH vs normal 2.1, second AI385586 line) was −1.6 fold and the “FC Amine oxidase, copper containing 3 (Aoc3), NM_009675” value [8] was −2.4 fold. For the same compound, the “FC CD14 antigen (CD14), NM_009841” value [8] was −2.0 fold, the “FC Cyclin G2 (Ccng2), U95826” value [8] was −2.5 fold and the “FC Flavin containing monooxygenase 1 (Fmo1), BC011229” value [8] was −2.0 fold. The “FC RAN binding protein 9 (Ranbp9), mRNA., NM_019930” value [8] was −2.3 fold, the “FC cDNA, BB408123” value [8] was −2.0 fold and the “FC cDNA, BB769119” value [8] was −2.2 fold.

Reference: patent publication US20080305186A1, “Method and Composition for the Treatment of Cardiac Hypertrophy” (BOARD OF REGENTS, THE UNIVERSITY OF TEXAS SYSTEM, priority 2007, published 2008)
